Test results: patent US4287201A, “Anovulatory method and chicken feed compositions” (Merck & Co., Inc., priority 1980, dated 1981)
Read-outs that look alike come from different tables or passages of the source.

How the values were obtained:
laying hens [1] = assay: Antigonadal Activity (ED20): ovarian weight of prime laying hens fed medicated diet for one week; type: in vivo, laying hens (chicken); conditions: medicated diet for seven days, based on at least 8 hens at 2 dose levels
Description: Antigonadal Activity--(ED20)
Prime laying hens (7-12 months), whose egg production has been documented during the preceding 2 weeks, are fed medicated diet for one week at various dose levels. At the conclusion of the one week test, the hens are sacrificed and their reproductive system is excised, examined and weighed. The seven day medication level producing a 20 g ovarian weight, based on at least 8 hens at 2 dose levels is calculated and recorded as ED20.
*Seven day medication level producing a 20 g ovarian weight in laying hen
(based on at least 8 hens at 2 dose levels)

laying hens [2] = assay: Anovulatory Activity (EPI): egg production of prime laying hens fed medicated diet; type: in vivo, laying hens (chicken); conditions: Gallus gallus, 192 h, read-out: EPI: Egg Production Index, % of control egg production for days 5 through 8
Description: Anovulatory Activity--(EPI)
Prime laying hens (7-12 months), whose egg production has been documented during the preceding 2 weeks, are fed diet containing medication at 100 ppm for 8 days. Egg production is recorded for days 5 through 8 while the birds are on test, and the Egg Production Index (EPI) is calculated as the % of control egg production for days 5 through 8 inclusive after start of oral medication at 100 ppm.
**Egg Production Index, % of control egg production for days 5 through 8
inclusive after start of oral medication at 100 ppm

SMILES | ED20: seven day medication level producing a 20 g ovarian weight in laying hen (laying hens [1]) [ppm] | response vs control in vivo at 100 ppm, 100 µg/mL (laying hens [2]; po) [%] | response vs control in vivo at 100 ppm, 100 µg/mL (laying hens [2]; hens, oral medication in diet at 100 ppm for 8 days, days 5 through 8 inclusive) [%]
Cc1cccc(C)c1N=C1NCCN1 [compound 1, 2-(2,6-dimethylphenylimino)imidazolidine] | 38 | 18 | –
Cc1c(Cl)cccc1N=C1NCCN1 [compound 2, 2-(3-chloro-2-methylphenylimino)imidazolidine] | 38 | 26 | –
Cc1cccc(Cl)c1N=C1NCCN1 [compound 3, 2-(6-chloro-2-methylphenylimino)imidazolidine] | 40 | 16 | –
Cc1ccc(N=C2NCCN2)c(C)c1 [compound 4] | 50 | 24 | –
Cc1cc(Cl)ccc1N=C1NCCN1 [compound 5, 2-(4-chloro-2-methylphenylimino)imidazolidine] | 53 | 24 | –
Cc1cc(C)c(N=C2NCCN2)c(C)c1 [compound 6, 2-(2,4,6-Trimethylphenylimino)imidazolidine] | 54 | 31 | –
Cc1cc(Br)ccc1N=C1NCCN1 [compound 7] | 56 | 24 | –
Cc1ccc(F)cc1N=C1NCCN1 [compound 8, 2-(5-fluoro-2-methylphenylimino)imidazolidine] | 67 | 24 | –
Cc1ccccc1N=C1NCCN1 [compound 9] | 69 | 8 | –
CCc1ccccc1N=C1NCCN1 [compound 10] | 83 | 31 | –
CCc1cccc(CC)c1N=C1NCCN1 [compound 11] | 151 | 31 | –
Cc1cccc(N=C2NCCN2)c1C [compound 12] | 181 | 86 | –
Clc1ccccc1N=C1NCCN1 [compound 13, 2-(2-chlorophenylimino)imidazolidine] | 217 | 31 | –
Cc1ccc(C)c(N=C2NCCN2)c1 [compound 14] | 250 | 70 | –
Clc1cccc(Cl)c1N=C1NCCN1 [compound 15] | 400 | – | 70
